Results on 8 compounds are retold here after publication PMC8941652 (European journal of medicinal chemistry, 2022).

Data set [1] relates to Mycobacterium tuberculosis H37Rv. In kind it is cell-based. Particulars: for MIC: H37Rv, 7H9 liquid medium, at least 90% growth inhibition, 10 days.
Data set [2] is classed as in vivo, CD-1 female mice. To be noted: p.o. 25 mg/kg, CMC/Tween80 suspension, compared with parent PAS.
For data set [3], the system named is Drug susceptible Mtb strains. The experiment in a line: microbe, parasite or virus in culture. In kind it is cell-based. To be noted: Mycobacterium tuberculosis.
The subject of data set [4] is Mycobacterium tuberculosis. Particulars: cited from earlier work.
For data set [5] the following is noted: p.o. 25 mg/kg.

Read-outs that look alike come from different tables or passages of the source.

As for `CC(C)OC(=O)c1ccc(N)cc1O` [Compound 5, Isopropyl 4-amino-2-hydroxybenzoate], the MIC entry in data set [1] is reported as “abolished activity”.
`CC(C)(C)C(=O)OCOC(=O)c1ccc(N)cc1O` [Compound 6, (Pivaloyloxy)methyl 4-amino-2-hydroxybenzoate]: the “oral bioavailability of PAS released from the suspension of prodrug” value in data set [2] is “significantly lower than the parent PAS”.
As for `Nc1cc(O)c(C(=O)O)cc1F` [Compound 11, 4-Amino-5-fluoro-2-hydroxybenzoic acid], the MIC in data set [3] lay within 6.3 to 25 µM; in data set [3] (read-out: MICs against the drug susceptible and MDR strains), 6.3 to 50 µg/mL.
For `CNc1ccc(C(=O)O)c(O)c1` [Compound 14, 2-Hydroxy-4-(methylamino)benzoic acid], the MIC entry in data set [1] was “inactive”. The “antitubercular potency relative to PAS” value in data set [4] is “nearly equipotent to PAS”.
In the case of `[N-]=[N+]=Nc1ccc(C(=O)O)c(O)c1` [Compound 15, 4-Azido-2-hydroxybenzoic acid], the “formation of PAS in vivo” value in data set [5] is reported as “no formation of PAS in vivo”. Moreover, in data set [1] (H37Rv MIC), the “loss of activity compared to PAS” value is roughly 200 fold. Further, the MIC entry in data set [1] is “weakly active”.
As for `CCOC(=O)c1cc(F)c(N)cc1O` [Compound 16, Ethyl 4-amino-5-fluoro-2-hydroxybenzoate], the MIC result in data set [1] was “inactive”.
In turn, `CC(=O)NC[C@H]1CN(c2ccc(N3CCOCC3)c(F)c2)C(=O)O1` [Linezolid] came in with an MIC in data set [3] of 0.7 to 1.9 µM.
The same measure, in the same setting: the figure for `Nc1ccc(C(=O)O)c(O)c1` [PAS, para-Aminosalicylic acid] is 0.2 to 0.6 µM.
